From patent publication US8471005B2 (Cephalon, Inc., priority 2008, dated 2013)
Where two headings read alike, the source gives them in different places.

What was measured:
[1] = target: T1, ALK (Homo sapiens, UniProt Q9UM73); assay: ALK Kinase Assay (ELISA/TRF, PLC-γ substrate); format: biochemical; conditions: read-out: ALK Potency
T1 construct: host or cells: baculovirus expression system
Outline: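 Wells were coated with 10 μg/mL phospholipase C-γ substrate in TBS, and the reaction was started by adding 30 ng/ml ALK enzyme and run at 37° C for 15 minutes. Phosphorylated product was detected with Eu-N1-labeled PT66 antibody, and IC50 values came from sigmoidal variable-slope fits of percent inhibition against log concentration.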

[2] = target: T2, JAK2 (Homo sapiens, UniProt O60674); assay: Recombinant Human JAK2 Kinase Assay (TRF); format: biochemical; conditions: read-out: JAK2 Potency
T2 construct: host or cells: baculovirus expression system
Outline: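 TRF read-out: Eu-N1 PY100 anti-phosphotyrosine antibody detects product. Enzyme is baculovirus-expressed JAK2 at 15 ng/ml; substrate is a biotinyl 15-mer peptide bound to Neutravidin-coated wells. Buffer 20 mM HEPES pH 7.2, 0.2 μM ATP, 1 mM MnCl2, 0.1% BSA, 2.5% DMSO final; 20 min, RT.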

[3] = ALK kinase inhibition, 1 μM ATP
[4] = JAK2 kinase inhibition, 0.2 μM ATP

T2 sequence (O60674 whole entry): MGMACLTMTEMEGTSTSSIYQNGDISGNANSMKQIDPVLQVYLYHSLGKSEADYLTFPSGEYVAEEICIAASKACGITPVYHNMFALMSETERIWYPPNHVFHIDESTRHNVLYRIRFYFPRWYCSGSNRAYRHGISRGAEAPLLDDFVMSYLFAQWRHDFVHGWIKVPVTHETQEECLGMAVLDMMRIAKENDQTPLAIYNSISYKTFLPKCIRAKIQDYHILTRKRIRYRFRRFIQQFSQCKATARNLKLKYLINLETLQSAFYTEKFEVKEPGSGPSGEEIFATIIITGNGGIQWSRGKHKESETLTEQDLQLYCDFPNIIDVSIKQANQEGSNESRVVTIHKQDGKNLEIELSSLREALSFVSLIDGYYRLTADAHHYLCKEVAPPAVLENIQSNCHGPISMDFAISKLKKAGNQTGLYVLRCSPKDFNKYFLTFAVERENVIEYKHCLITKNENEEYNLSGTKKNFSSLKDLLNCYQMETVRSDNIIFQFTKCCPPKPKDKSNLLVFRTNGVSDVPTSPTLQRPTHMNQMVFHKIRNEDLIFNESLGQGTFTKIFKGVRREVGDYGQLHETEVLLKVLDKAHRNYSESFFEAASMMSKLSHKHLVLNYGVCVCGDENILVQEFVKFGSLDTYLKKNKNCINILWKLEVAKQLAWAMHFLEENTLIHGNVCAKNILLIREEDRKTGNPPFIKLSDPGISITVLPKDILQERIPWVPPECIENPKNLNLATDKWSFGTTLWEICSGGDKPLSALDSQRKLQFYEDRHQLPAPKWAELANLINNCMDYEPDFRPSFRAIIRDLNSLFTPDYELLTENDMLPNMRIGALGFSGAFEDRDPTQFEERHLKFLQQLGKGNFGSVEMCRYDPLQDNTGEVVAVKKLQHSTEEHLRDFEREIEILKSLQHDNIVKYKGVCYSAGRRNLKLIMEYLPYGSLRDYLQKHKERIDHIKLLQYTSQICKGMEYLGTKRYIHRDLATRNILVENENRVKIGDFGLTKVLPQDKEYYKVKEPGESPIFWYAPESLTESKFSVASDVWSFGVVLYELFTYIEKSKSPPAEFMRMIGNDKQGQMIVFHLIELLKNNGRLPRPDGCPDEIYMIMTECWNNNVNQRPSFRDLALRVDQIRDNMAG
T1 sequence (Q9UM73 19-1620): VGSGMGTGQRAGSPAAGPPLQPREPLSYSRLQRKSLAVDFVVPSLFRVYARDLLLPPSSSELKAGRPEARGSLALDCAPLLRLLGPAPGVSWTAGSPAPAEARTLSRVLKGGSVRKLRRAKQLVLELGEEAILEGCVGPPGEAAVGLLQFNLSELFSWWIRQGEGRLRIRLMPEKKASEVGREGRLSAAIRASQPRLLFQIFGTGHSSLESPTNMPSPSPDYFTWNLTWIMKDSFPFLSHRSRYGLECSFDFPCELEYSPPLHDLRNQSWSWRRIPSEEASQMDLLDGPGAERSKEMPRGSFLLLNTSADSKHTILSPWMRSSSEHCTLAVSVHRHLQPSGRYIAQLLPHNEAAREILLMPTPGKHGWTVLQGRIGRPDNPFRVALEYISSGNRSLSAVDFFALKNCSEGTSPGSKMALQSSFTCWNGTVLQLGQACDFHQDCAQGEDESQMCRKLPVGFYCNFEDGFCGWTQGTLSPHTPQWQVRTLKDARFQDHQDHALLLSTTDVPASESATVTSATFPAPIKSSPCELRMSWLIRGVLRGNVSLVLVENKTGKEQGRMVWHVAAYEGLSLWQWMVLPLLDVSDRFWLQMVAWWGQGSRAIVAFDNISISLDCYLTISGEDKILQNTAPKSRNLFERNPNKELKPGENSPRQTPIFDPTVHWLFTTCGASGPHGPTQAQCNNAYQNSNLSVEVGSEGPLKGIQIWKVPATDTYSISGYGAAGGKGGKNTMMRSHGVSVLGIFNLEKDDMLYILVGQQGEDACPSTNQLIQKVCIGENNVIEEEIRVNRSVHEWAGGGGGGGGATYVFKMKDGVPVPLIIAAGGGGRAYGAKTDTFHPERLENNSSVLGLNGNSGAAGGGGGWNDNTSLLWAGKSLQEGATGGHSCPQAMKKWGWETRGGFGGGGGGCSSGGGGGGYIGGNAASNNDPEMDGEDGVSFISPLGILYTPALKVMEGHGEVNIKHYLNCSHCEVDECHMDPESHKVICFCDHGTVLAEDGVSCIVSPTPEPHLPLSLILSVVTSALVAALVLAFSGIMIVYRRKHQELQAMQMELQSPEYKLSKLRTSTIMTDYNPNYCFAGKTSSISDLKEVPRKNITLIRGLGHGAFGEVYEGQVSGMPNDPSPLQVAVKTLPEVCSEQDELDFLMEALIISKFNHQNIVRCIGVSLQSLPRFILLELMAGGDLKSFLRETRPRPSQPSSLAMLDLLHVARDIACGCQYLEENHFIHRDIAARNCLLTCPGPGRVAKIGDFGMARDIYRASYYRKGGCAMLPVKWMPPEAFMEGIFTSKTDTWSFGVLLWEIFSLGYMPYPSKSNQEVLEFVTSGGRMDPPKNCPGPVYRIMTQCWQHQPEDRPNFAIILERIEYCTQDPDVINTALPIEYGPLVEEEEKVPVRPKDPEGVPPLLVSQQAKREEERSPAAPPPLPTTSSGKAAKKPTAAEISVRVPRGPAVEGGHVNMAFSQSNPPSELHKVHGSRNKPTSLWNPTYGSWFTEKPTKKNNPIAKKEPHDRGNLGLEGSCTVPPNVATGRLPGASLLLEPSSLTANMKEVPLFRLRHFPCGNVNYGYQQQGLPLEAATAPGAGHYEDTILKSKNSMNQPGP

IC50 [1, 3]	IC50 [2, 4]	IC50 ([1]; ALK Kinase Inhibition)	IC50 ([2]; JAK2 Kinase Inhibition)	Compound
1000 to 10000 nM	< 100 nM			CS(=O)(=O)N1Cc2cccc(-c3ccc4cnc(Nc5ccc(C6CN(CC(N)=O)C6)cc5)nn34)c2C1 [Example 582, 2-(3-{4-[7-(2-Methanesulfonyl-2,3-dihydro-1H-isoindol-4-yl)-pyrrolo[2,1-f][1,2,4]triazin-2-ylamino]-phenyl}-azetidin-1-yl)-acetamide]
< 100 nM	100 to 1000 nM			COc1cc(C2CCN(CC(=O)N3CCNCC3)CC2)ccc1Nc1ncc2ccc(-c3ccccc3OC)n2n1 [Example 1276, 2-(4-{3-Methoxy-4-[7-(2-methoxy-phenyl)-pyrrolo[2,1-f][1,2,4]triazin-2-ylamino]-phenyl}-piperidin-1-yl)-1-piperazin-1-yl-ethanone]
> 10000 nM	1000 to 10000 nM			CN1CCc2ccc(Nc3ncc4c(-c5ccc(F)cc5)ccn4n3)cc2C1 [Example 728, [5-(4-Fluoro-phenyl)-pyrrolo[2,1-f][1,2,4]triazin-2-yl]-(2-methyl-1,2,3,4-tetrahydro-isoquinolin-7-yl)-amine]
< 100 nM	< 100 nM			COc1cc(N2CCC(N(C)C)C2)ccc1Nc1ncc2ccc(-c3ccccc3OC)n2n1 (stereo not shown) [Example 763, [4-(3-Dimethylamino-pyrrolidin-1-yl)-2-methoxy-phenyl]-[7-(2-methoxy-phenyl)-pyrrolo[2,1-f][1,2,4]triazin-2-yl]-amine]
100 to 1000 nM	< 100 nM			CC(C)(C)NS(=O)(=O)c1cccc(-c2ccc3cnc(Nc4ccc5[nH]c(=O)[nH]c5c4)nn23)c1 [Example 1298, N-tert-Butyl-3-[2-(2-oxo-2,3-dihydro-1H-benzimidazol-5-ylamino)-pyrrolo[2,1-f][1,2,4]triazin-7-yl]-benzenesulfonamide]
		< 100 nM	< 100 nM	C[C@H](O)CN1CCC(c2ccc(Nc3ncc4ccc(-c5ccc(S(C)(=O)=O)cc5)n4n3)cc2)CC1 [Example 1432, (S)-1-(4-{4-[7-(4-Methanesulfonyl-phenyl)-pyrrolo[2,1-f][1,2,4]triazin-2-ylamino]-phenyl}-piperidin-1-yl)-propan-2-ol]
1000 to 10000 nM	< 100 nM			COc1ccncc1-c1ccc2cnc(Nc3ccc(N4CCOCC4)cc3)nn12 [Example 1211, [7-(4-Methoxy-pyridin-3-yl)-pyrrolo[2,1-f][1,2,4]triazin-2-yl]-(4-morpholin-4-yl-phenyl)-amine]
100 to 1000 nM	1000 to 10000 nM			COc1cc(C(=O)N2CCN(C)CC2)ccc1Nc1ncc2ccc(-c3ccccc3N(C)S(C)(=O)=O)n2n1 [Example 490, N-(2-{2-[2-Methoxy-4-(4-methyl-piperazine-1-carbonyl)-phenylamino]-pyrrolo[2,1-f][1,2,4]triazin-7-yl}-phenyl)-N-methyl-methanesulfonamide]
		< 100 nM	< 100 nM	COc1cc(N2CCC(N3CCOCC3)CC2)ccc1Nc1ncc2ccc(-c3cccc(OC)c3OC)n2n1 [Example 1465, [7-(2,3-Dimethoxy-phenyl)-pyrrolo[2,1-f][1,2,4]triazin-2-yl]-[2-methoxy-4-(4-morpholin-4-yl-piperidin-1-yl)-phenyl]-amine]
< 100 nM	< 100 nM			COc1ccccc1-c1ccc2cnc(Nc3ccc(C4CCN(CC(N)=O)CC4)cc3)nn12 [Example 660, 2-(4-{4-[7-(2-Methoxy-phenyl)-pyrrolo[2,1-f][1,2,4]triazin-2-ylamino]-phenyl}-piperidin-1-yl)-acetamide]
		100 to 1000 nM	< 100 nM	CC(C)(C)NS(=O)(=O)c1cccc(-c2ccc3cnc(Nc4cccc(N5CCOCC5)c4)nn23)c1 [Example 1393, N-tert-Butyl-3-[2-(3-morpholin-4-yl-phenylamino)-pyrrolo[2,1-f][1,2,4]triazin-7-yl]-benzenesulfonamide]
< 100 nM	100 to 1000 nM			(S)-1-(4-{4-[7-(4-Chloro-2-methoxy-phenyl)-pyrrolo[2,1-f][1,2,4]triazin-2-ylamino]-3-methoxy-phenyl}-piperazin-1-yl)-propan-2-ol [Example 487]
100 to 1000 nM	< 100 nM			CN1CCC(c2ccc(Nc3ncc4ccc(-c5cnn(CCC#N)c5)n4n3)cc2)CC1 [Example 932, 3-(4-{2-[4-(1-Methyl-piperidin-4-yl)-phenylamino]-pyrrolo[2,1-f][1,2,4]triazin-7-yl}-pyrazol-1-yl)-propionitrile]
< 100 nM	100 to 1000 nM			COc1cc2c(cc1Nc1ncc3ccc(-c4ccccc4N(C)S(C)(=O)=O)n3n1)CN(CC(N)=O)C2 [Example 869, 2-(5-{7-[2-(Methanesulfonyl-methyl-amino)-phenyl]-pyrrolo[2,1-f][1,2,4]triazin-2-ylamino}-6-methoxy-1,3-dihydro-isoindol-2-yl)-acetamide]
		< 100 nM	< 100 nM	CN1CCN(c2ccc(Nc3ncc4ccc(Sc5ccccc5)n4n3)cc2)CC1 [Example 78, [4-(4-Methyl-piperazin-1-yl)-phenyl]-(7-phenylsulfanyl-pyrrolo[2,1-f][1,2,4]triazin-2-yl)-amine]
< 100 nM	100 to 1000 nM			COc1cc(C2CCN(CC(N)=O)CC2)ccc1Nc1ncc2ccc(-c3ccccc3OC)n2n1 [Example 814, 2-(4-{3-Methoxy-4-[7-(2-methoxy-phenyl)-pyrrolo[2,1-f][1,2,4]triazin-2-ylamino]-phenyl}-piperidin-1-yl)-acetamide]
		> 10000 nM	< 100 nM	CC(C)(C)OC(=O)c1ccc(-c2ccc3cnc(Nc4ccc(N5CCOCC5)cc4)nn23)cc1 [Example 44, 4-[2-(4-Morpholin-4-yl-phenylamino)-pyrrolo[2,1-f][1,2,4]triazin-7-yl]-benzoic acid tert-butyl ester]
		< 100 nM	< 100 nM	COc1ccccc1-c1ccc2cnc(Nc3ccc(CN4CCN(C)CC4)cc3)nn12 [Example 353, [7-(2-Methoxy-phenyl)-pyrrolo[2,1-f][1,2,4]triazin-2-yl]-[4-(4-methyl-piperazin-1-ylmethyl)-phenyl]-amine]
		100 to 1000 nM	< 100 nM	COCc1ccc(-c2ccc3cnc(Nc4ccc(N5CCN(C)CC5)cc4)nn23)cc1 [Example 1499, [7-(4-Methoxymethyl-phenyl)-pyrrolo[2,1-f][1,2,4]triazin-2-yl]-[4-(4-methyl-piperazin-1-yl)-phenyl]-amine]
		100 to 1000 nM	< 100 nM	CCN1C(=O)CCC(C)(C)c2ccc(Nc3ncc4ccc(-c5cnn(C)c5)n4n3)cc21 [Example 1379, 1-Ethyl-5,5-dimethyl-8-[7-(1-methyl-1H-pyrazol-4-yl)-pyrrolo[2,1-f][1,2,4]triazin-2-ylamino]-1,3,4,5-tetrahydro-benzo[b]azepin-2-one]
100 to 1000 nM	< 100 nM			NC(=O)CN1CCC(c2ccc(Nc3ncc4ccc(-c5cccc(S(=O)(=O)N6CCCC6)c5)n4n3)cc2)CC1 [Example 928, 2-[4-(4-{7-[3-(Pyrrolidine-1-sulfonyl)-phenyl]-pyrrolo[2,1-f][1,2,4]triazin-2-ylamino}-phenyl)-piperidin-1-yl]-acetamide]
		100 to 1000 nM	< 100 nM	CN1CCN(c2cccc(Nc3ncc4ccc(-c5cccc6c5OC(F)(F)O6)n4n3)c2)CC1 [Example 1534, [7-(2,2-Difluoro-benzo[1,3]dioxol-4-yl)-pyrrolo[2,1-f][1,2,4]triazin-2-yl]-[3-(4-methyl-piperazin-1-yl)-phenyl]-amine]
< 100 nM	< 100 nM			NC(=O)CN1CCC(c2ccc(Nc3ncc4ccc(-c5cccc6c5OCC6)n4n3)cc2)CC1 [Example 706, 2-(4-{4-[7-(2,3-Dihydro-benzofuran-7-yl)-pyrrolo[2,1-f][1,2,4]triazin-2-ylamino]-phenyl}-piperidin-1-yl)-acetamide]
> 10000 nM	1000 to 10000 nM			CN(C)c1cccc(CNc2ncc3c(-c4ccc(F)cc4)ccn3n2)c1 [Example 729, (3-Dimethylamino-benzyl)-[5-(4-fluoro-phenyl)-pyrrolo[2,1-f][1,2,4]triazin-2-yl]-amine]
1000 to 10000 nM	< 100 nM			COc1ccc(-c2ccc3cnc(Nc4ccc5nc(CO)[nH]c5c4)nn23)cn1 [Example 1069, {6-[7-(6-Methoxy-pyridin-3-yl)-pyrrolo[2,1-f][1,2,4]triazin-2-ylamino]-1H-benzoimidazol-2-yl}-methanol]
1000 to 10000 nM	< 100 nM			Cn1ncc2ccc(Nc3ncc4ccc(-c5cccc(S(=O)(=O)NC(C)(C)C)c5)n4n3)cc21 [Example 1317, N-tert-Butyl-3-[2-(1-methyl-1H-indazol-6-ylamino)-pyrrolo[2,1-f][1,2,4]triazin-7-yl]-benzenesulfonamide]
		100 to 1000 nM	< 100 nM	COc1ccccc1-c1ccc2cnc(NC(=O)Nc3ccc(N4CCN(C)CC4)cc3)nn12 [Example 449, 1-[7-(2-Methoxy-phenyl)-pyrrolo[2,1-f][1,2,4]triazin-2-yl]-3-[4-(4-methyl-piperazin-1-yl)-phenyl]-urea]
		< 100 nM	1000 to 10000 nM	COc1cc2c(cc1Nc1ncc3ccc(-c4ccccc4N(C)S(C)(=O)=O)n3n1)CCC1(CCN(C[C@H](C)O)CC1)O2 [Example 1496, N-{2-[2-({1′-[(25)-2-hydroxypropyl]-7-methoxy-3,4-dihydrospiro[chromene-2,4′-piperidin]-6-yl}amino)pyrrolo[2,1-f][1,2,4]triazin-7-yl]phenyl}-N-methylmethanesulfonamide]
		100 to 1000 nM	< 100 nM	COc1ccccc1-c1ccc2cnc(Nc3ccc4nc(CN5CCN(C)CC5)[nH]c4c3)nn12 [Example 1526, [7-(2-Methoxy-phenyl)-pyrrolo[2,1-f][1,2,4]triazin-2-yl]-[2-(4-methyl-piperazin-1-ylmethyl)-3H-benzimidazol-5-yl]-amine]
